Measured values: patent US20260317320A1, “C5AR1 ANTAGONISTS AND USES THEREOF” (Vanqua Bio, Inc., priority 2022, published 2026)
Like-named read-outs stand apart in the source and are kept apart here.

Legend:
[1] = target: T1, complement C5a receptor 1 (C5aR1) (Homo sapiens, UniProt P21730); experiment: β-arrestin recruitment via C5aR1 activation in live CHO-K1 cells (PathHunter), agonist mode; format: cell-based
T1 construct: β-galactosidase fragment (PathHunter enzyme complementation); host or cells: CHO-K1 (PathHunter CHO-K1 C5aR1 β-arrestin cell line)
T1 sequence (P21730 1-350): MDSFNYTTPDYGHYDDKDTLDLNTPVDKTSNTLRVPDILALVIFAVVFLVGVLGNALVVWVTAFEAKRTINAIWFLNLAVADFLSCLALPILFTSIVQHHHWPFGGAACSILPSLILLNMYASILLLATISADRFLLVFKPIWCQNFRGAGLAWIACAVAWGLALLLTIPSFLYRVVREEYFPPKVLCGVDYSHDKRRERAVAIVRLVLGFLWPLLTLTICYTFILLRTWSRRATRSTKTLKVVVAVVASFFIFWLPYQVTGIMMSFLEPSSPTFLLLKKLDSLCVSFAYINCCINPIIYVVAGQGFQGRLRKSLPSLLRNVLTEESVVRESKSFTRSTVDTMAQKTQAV
How it was run: (§1)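 Live CHO-K1 cells carry two galactosidase enzyme fragments, one fused to β-arrestin and one to C5aR1, so that β-arrestin recruitment restores enzyme activity. Agonist mode tests compounds alone. Antagonist mode tests them against recombinant hC5a at EC90, and IC50 values are reported in binned ranges.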

[2] = target: T1, complement C5a receptor 1 (C5aR1); experiment: β-arrestin recruitment via C5aR1 activation in live CHO-K1 cells (PathHunter), antagonist mode; format: cell-based; conditions: antagonist mode; recombinant hC5a (EC90) as competing natural agonist; live CHO-K1 cells; read-out: [Antagonist] B-arrestin2 recruitment: Average IC50
How it was run: as §1

Row | [Agonist] B-arrestin2 recruitment: Average EC50 (nM) ([1]; at 10 μM) | IC50 [2] [nM] | [Agonist] B-arrestin2 recruitment: Average EC50 (nM) [1] | Compound
1 | Non-Active at 10 μM | 500 to 5000 |  | Cc1cnc2cc(N3CCN(c4c(C)cccc4F)CC3)c(=O)n(Cc3nccnc3OC(F)F)c2n1 [161A, 5-((3-(Difluoromethoxy)pyrazin-2-yl)methyl)-7-(4-(2-fluoro-6-methylphenyl)piperazin-1-yl)-3-methylpyrido[2,3-b]pyrazin-6(5H)-one]
2 | Non-Active at 10 μM | 5000 to 100000 |  | Cc1cnc2cc(N3CCN(c4c(C)cccc4F)CC3)c(=O)n(Cc3nccn(C(F)F)c3=O)c2n1 [161B, 5-((4-(Difluoromethyl)-3-oxo-3,4-dihydropyrazin-2-yl)methyl)-7-(4-(2-fluoro-6-methylphenyl)piperazin-1-yl)-3-methylpyrido[2,3-b]pyrazin-6(5H)-one]
3 | Non-Active at 10 μM | 500 to 5000 |  | Cc1cnc2cc([C@H]3CC[C@@H](c4c(C)cccc4F)CC3)c(=O)n(Cc3nccnc3OC(F)F)c2n1 [168A, 5-((3-(Difluoromethoxy)pyrazin-2-yl)methyl)-7-((1s,4s)-4-(2-fluoro-6-methylphenyl)cyclohexyl)-3-methylpyrido[2,3-b]pyrazin-6(5H)-one]
4 | Non-Active at 10 μM | < 500 |  | Cc1cnc2cc([C@H]3CC[C@H](c4c(C)cccc4F)CC3)c(=O)n(Cc3nccnc3OC(F)F)c2n1 [168B, 5-((3-(Difluoromethoxy)pyrazin-2-yl)methyl)-7-((1r,4r)-4-(2-fluoro-6-methylphenyl)cyclohexyl)-3-methylpyrido[2,3-b]pyrazin-6(5H)-one]
5 | Non-Active at 10 μM | < 500 |  | Cc1cnc2cc([C@H]3CC[C@@H](c4c(C)cccc4F)C3)c(=O)n(Cc3ncccc3C(F)(F)F)c2n1 [171A, 7-((1S,3R)-3-(2-Fluoro-6-methylphenyl)cyclopentyl)-3-methyl-5-((3-(trifluoromethyl)pyridin-2-yl)methyl)pyrido[2,3-b]pyrazin-6(5H)-one]
6 | Non-Active at 10 μM | < 500 |  | Cc1cnc2cc([C@@H]3CC[C@H](c4c(C)cccc4F)C3)c(=O)n(Cc3ncccc3C(F)(F)F)c2n1 [171B, 7-((1R,3S)-3-(2-Fluoro-6-methylphenyl)cyclopentyl)-3-methyl-5-((3-(trifluoromethyl)pyridin-2-yl)methyl)pyrido[2,3-b]pyrazin-6(5H)-one]
7 |  | < 500 | Non-Active | Cc1cnc2cc([C@H]3CC[C@H](c4c(C)cccc4F)C3)c(=O)n(Cc3ncccc3C(F)(F)F)c2n1 [171C, 7-((1S,3S)-3-(2-Fluoro-6-methylphenyl)cyclopentyl)-3-methyl-5-((3-(trifluoromethyl)pyridin-2-yl)methyl)pyrido[2,3-b]pyrazin-6(5H)-one]
8 | Non-Active at 10 μM | 500 to 5000 |  | Cc1cnc2cc([C@@H]3CC[C@@H](c4c(C)cccc4F)C3)c(=O)n(Cc3ncccc3C(F)(F)F)c2n1 [171D, 7-((1R,3R)-3-(2-Fluoro-6-methylphenyl)cyclopentyl)-3-methyl-5-((3-(trifluoromethyl)pyridin-2-yl)methyl)pyrido[2,3-b]pyrazin-6(5H)-one]
9 | Non-Active at 10 μM | 500 to 5000 |  | Cc1cnc2cc([C@H]3CC[C@@H](c4c(C)cccc4F)C3)c(=O)n(Cc3nccnc3C)c2n1 [172A, 7-((1S,3R)-3-(2-Fluoro-6-methylphenyl)cyclopentyl)-3-methyl-5-((3-methylpyrazin-2-yl)methyl)pyrido[2,3-b]pyrazin-6(5H)-one]
10 | Non-Active at 10 μM | 500 to 5000 |  | Cc1cnc2cc([C@@H]3CC[C@H](c4c(C)cccc4F)C3)c(=O)n(Cc3nccnc3C)c2n1 [172B, 7-((1R,3S)-3-(2-Fluoro-6-methylphenyl)cyclopentyl)-3-methyl-5-((3-methylpyrazin-2-yl)methyl)pyrido[2,3-b]pyrazin-6(5H)-one]
11 | Non-Active at 10 μM | < 500 |  | Cc1cnc2cc([C@H]3CC[C@H](c4c(C)cccc4F)C3)c(=O)n(Cc3nccnc3C)c2n1 [172C, 7-((1S,3S)-3-(2-Fluoro-6-methylphenyl)cyclopentyl)-3-methyl-5-((3-methylpyrazin-2-yl)methyl)pyrido[2,3-b]pyrazin-6(5H)-one]
12 | Non-Active at 10 μM | 5000 to 100000 |  | Cc1cnc2cc([C@@H]3CC[C@@H](c4c(C)cccc4F)C3)c(=O)n(Cc3nccnc3C)c2n1 [172D, 7-((1R,3R)-3-(2-Fluoro-6-methylphenyl)cyclopentyl)-3-methyl-5-((3-methylpyrazin-2-yl)methyl)pyrido[2,3-b]pyrazin-6(5H)-one]
13 | Non-Active at 10 μM | 5000 to 100000 |  | Cc1cnc2cc([C@H]3CC[C@H](c4c(C)cccc4F)CC3)c(=O)n([C@H]3CCC(F)(F)c4nccnc43)c2n1 [174A, 5-((S)-8,8-Difluoro-5,6,7,8-tetrahydroquinoxalin-5-yl)-7-((1r,4S)-4-(2-fluoro-6-methylphenyl)cyclohexyl)-3-methylpyrido[2,3-b]pyrazin-6(5H)-one]
14 | Non-Active at 10 μM | 500 to 5000 |  | Cc1cnc2cc([C@H]3CC[C@H](c4c(C)cccc4F)CC3)c(=O)n([C@@H]3CCC(F)(F)c4nccnc43)c2n1 [174B, 5-((R)-8,8-Difluoro-5,6,7,8-tetrahydroquinoxalin-5-yl)-7-((1r,4R)-4-(2-fluoro-6-methylphenyl)cyclohexyl)-3-methylpyrido[2,3-b]pyrazin-6(5H)-one]
15 |  | < 500 | Non-Active | Cc1cnc2cc([C@H]3CC[C@@H](c4c(C)cccc4F)C3)c(=O)n(Cc3ncccc3OC(F)F)c2n1 [175A, 5-((3-(Difluoromethoxy)pyridin-2-yl)methyl)-7-((1S,3R)-3-(2-fluoro-6-methylphenyl)cyclopentyl)-3-methylpyrido[2,3-b]pyrazin-6(5H)-one]
16 | Non-Active at 10 μM | < 500 |  | Cc1cnc2cc([C@@H]3CC[C@H](c4c(C)cccc4F)C3)c(=O)n(Cc3ncccc3OC(F)F)c2n1 [175B, 5-((3-(Difluoromethoxy)pyridin-2-yl)methyl)-7-((1R,3S)-3-(2-fluoro-6-methylphenyl)cyclopentyl)-3-methylpyrido[2,3-b]pyrazin-6(5H)-one]
17 |  | < 500 | Non-Active | Cc1cnc2cc([C@H]3CC[C@H](c4c(C)cccc4F)C3)c(=O)n(Cc3ncccc3OC(F)F)c2n1 [175C, 5-((3-(Difluoromethoxy)pyridin-2-yl)methyl)-7-((1S,3S)-3-(2-fluoro-6-methylphenyl)cyclopentyl)-3-methylpyrido[2,3-b]pyrazin-6(5H)-one]
18 | Non-Active at 10 μM | 500 to 5000 |  | Cc1cnc2cc([C@@H]3CC[C@@H](c4c(C)cccc4F)C3)c(=O)n(Cc3ncccc3OC(F)F)c2n1 [175D, 5-((3-(Difluoromethoxy)pyridin-2-yl)methyl)-7-((1R,3R)-3-(2-fluoro-6-methylphenyl)cyclopentyl)-3-methylpyrido[2,3-b]pyrazin-6(5H)-one]
19 | Non-Active at 10 μM | < 500 |  | Cc1cnc2cc([C@H]3CC[C@@H](c4c(C)cccc4F)C3)c(=O)n(Cc3ncccc3C(F)F)c2n1 [187A, 5-((3-(Difluoromethyl)pyridin-2-yl)methyl)-7-((1S,3R)-3-(2-fluoro-6-methylphenyl)cyclopentyl)-3-methylpyrido[2,3-b]pyrazin-6(5H)-one]
20 | Non-Active at 10 μM | < 500 |  | Cc1cnc2cc([C@H]3CC[C@H](c4c(C)cccc4F)C3)c(=O)n(Cc3ncccc3C(F)F)c2n1 [187B, 5-((3-(Difluoromethyl)pyridin-2-yl)methyl)-7-((1S,3S)-3-(2-fluoro-6-methylphenyl)cyclopentyl)-3-methylpyrido[2,3-b]pyrazin-6(5H)-one]
21 | Non-Active at 10 μM | < 500 |  | Cc1cnc2cc([C@@H]3CC[C@H](c4c(C)cccc4F)C3)c(=O)n(Cc3ncccc3C(F)F)c2n1 [187C, 5-((3-(Difluoromethyl)pyridin-2-yl)methyl)-7-((1R,3S)-3-(2-fluoro-6-methylphenyl)cyclopentyl)-3-methylpyrido[2,3-b]pyrazin-6(5H)-one]
22 | Non-Active at 10 μM | 500 to 5000 |  | Cc1cnc2cc([C@@H]3CC[C@@H](c4c(C)cccc4F)C3)c(=O)n(Cc3ncccc3C(F)F)c2n1 [187D, 5-((3-(Difluoromethyl)pyridin-2-yl)methyl)-7-((1R,3R)-3-(2-fluoro-6-methylphenyl)cyclopentyl)-3-methylpyrido[2,3-b]pyrazin-6(5H)-one]
23 | Non-Active at 10 μM | < 500 |  | Cc1cnc2cc([C@H]3CC[C@@H](c4c(C)cccc4F)C3)c(=O)n(Cc3nccnc3C(F)(F)F)c2n1 [197A, 7-((1S,3R)-3-(2-Fluoro-6-methylphenyl)cyclopentyl)-3-methyl-5-((3-(trifluoromethyl)pyrazin-2-yl)methyl)pyrido[2,3-b]pyrazin-6(5H)-one]
